Measurements published in patent US5422126A, “Halogen compositions for water treatment and method of preparation thereof” (priority 1993, dated 1995).
In brackets after ≈: the same amount, converted by molar mass.

How the values were obtained:
[1] = Water solubility of solid halogenated hydantoins and amount of halogen dissolved in a saturated solution; conditions: for Amount of halogen dissolved in saturated solution: saturated solution in water
physchem = conditions: water

In the case of `CC1(C)C(=O)N(Cl)C(=O)N1Br` [Bromo-chlorodimethylhydantoin, bromochlorodimethylhydantoin], the “Amount of halogen dissolved in saturated solution” value [1] is reported as 825 mg/L as Cl2 and the Water solubility ([1]; solid halogenated hydantoin in water) is reported as 0.15%.
In the case of `CC1(C)C(=O)N(Br)C(=O)N1Br` [Dibromodimethylhydantion, 1,3-dibromo-5,5-dimethylhydantoin], the “Amount of halogen dissolved in saturated solution” value [1] is reported as 542 mg/L as Cl2 and the solubility ([1]; water) is reported as 1.1 mg/mL (≈ 3.85 mM).
Work on `CC1(C)C(=O)N(Cl)C(=O)N1Cl` [Dichlorodimethylhydantoin, dichlorodimethylhydantoin] yielded a solubility (physchem) of 2.1 mg/mL (≈ 10.7 mM).
